One assay has as its target T1, human recombinant GR (Homo sapiens, UniProt P04150).
T1 construct: purchased PanVera P2812
T1 sequence (P04150 1-777): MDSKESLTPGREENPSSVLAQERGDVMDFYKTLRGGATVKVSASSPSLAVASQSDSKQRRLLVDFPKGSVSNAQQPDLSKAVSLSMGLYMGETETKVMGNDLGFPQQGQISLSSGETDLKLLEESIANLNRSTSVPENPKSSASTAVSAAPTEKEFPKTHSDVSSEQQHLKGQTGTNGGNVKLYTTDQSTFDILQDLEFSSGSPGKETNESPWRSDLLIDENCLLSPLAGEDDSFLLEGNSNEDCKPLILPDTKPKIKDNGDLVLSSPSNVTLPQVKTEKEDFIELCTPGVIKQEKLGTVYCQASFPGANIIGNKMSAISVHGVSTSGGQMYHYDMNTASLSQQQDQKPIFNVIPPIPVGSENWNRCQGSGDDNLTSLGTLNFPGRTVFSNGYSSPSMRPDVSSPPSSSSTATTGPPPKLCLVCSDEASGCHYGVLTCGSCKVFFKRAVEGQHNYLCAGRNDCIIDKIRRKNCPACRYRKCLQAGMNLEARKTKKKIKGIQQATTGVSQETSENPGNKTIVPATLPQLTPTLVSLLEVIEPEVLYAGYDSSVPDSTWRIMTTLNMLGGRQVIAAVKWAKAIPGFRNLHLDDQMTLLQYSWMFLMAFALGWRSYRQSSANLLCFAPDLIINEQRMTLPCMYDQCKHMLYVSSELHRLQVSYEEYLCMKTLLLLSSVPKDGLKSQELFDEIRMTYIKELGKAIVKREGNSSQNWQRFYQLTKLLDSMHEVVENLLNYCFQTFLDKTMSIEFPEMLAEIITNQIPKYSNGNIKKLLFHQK
The assay can be described thus: Human glucocorticoid receptor (GR) fluorescence polarisation (FP) binding assay. An outline of the steps:
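Competition fluorescence polarisation: 0.5 nM GS Red labelled glucocorticoid and 1 nM recombinant human GR with 8-point half-log compound series, 1% DMSO, 4 h room temperature, potassium phosphate pH 7.4 buffer with molybdate, EDTA, DTT. Affinity derived from the drop in polarisation, normalised to blank wells.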
A general note: Polarisation of emitted light reports the rotation of a fluorescent probe.

Assay [1] relates to induction of TAT by dexamethasone in HepG2 cells. Kind of assay: HepG2 tyrosine aminotransferase (TAT) assay. Type of assay: cell-based, human.
[2] abbreviates: human recombinant GR, fluorescence polarisation binding assay, read-out: GR binding.
Setting [3] is: HepG2 cells, challenge of 100 nM dexamethasone, Ki from IC50 by Cheng and Prusoff equation.

This note sets out measurements from patent US12226412B2, “Heteroaryl-ketone fused azadecalin glucocorticoid receptor modulators” (Corcept Therapeutics, Inc., priority 2012, dated 2025).

Like-named read-outs stand apart in the source and are kept apart here. A value given as a limit tells only on which side of the number the result lay.

On to `O=C(c1ccccn1)[C@]12Cc3cnn(-c4ccc(F)cc4)c3C=C1CCN(S(=O)(=O)c1ccc(Cl)c(Cl)c1)C2` [Example 11AF, (R)-(6-((3,4-dichlorophenyl)sulfonyl)-1-(4-fluorophenyl)-4,4a,5,6,7,8-hexahydro-1H-pyrazolo[3,4-g]isoquinolin-4a-yl)(pyridin-2-yl)methanone], for which the Ki on human recombinant GR was below 0.5 nM; in assay [1], below 20 nM.
For the compound `Cc1ccnc(C(=O)[C@]23Cc4cnn(-c5ccc(F)cc5)c4C=C2CCN(S(=O)(=O)c2cccc(C(F)(F)F)c2)C3)c1` [Example 11AG, (R)-(1-(4-fluorophenyl)-6-((3-(trifluoromethyl)phenyl)sulfonyl)-4,4a,5,6,7,8-hexahydro-1H-pyrazolo[3,4-g]isoquinolin-4a-yl)(4-methylpyridin-2-yl)methanone], the Ki was below 0.5 nM at human recombinant GR (setting [2]) and below 20 nM in assay [1] (setting [3]).
In the case of `CCn1cc(S(=O)(=O)N2CCC3=Cc4c(cnn4-c4ccc(F)cc4)C[C@]3(C(=O)c3cc(C)ccn3)C2)cn1` [Example 11AH, (R)-(6-((1-ethyl-1H-pyrazol-4-yl)sulfonyl)-1-(4-fluorophenyl)-4,4a,5,6,7,8-hexahydro-1H-pyrazolo[3,4-g]isoquinolin-4a-yl)(4-methylpyridin-2-yl)methanone], the Ki was below 0.5 nM at human recombinant GR (setting [2]) and below 20 nM in assay [1] (setting [3]).
For `Cc1ccnc(C(=O)[C@]23Cc4cnn(-c5ccc(F)cc5)c4C=C2CCN(S(=O)(=O)c2cnn(C)c2C)C3)c1` [Example 11AI, (R)-(6-((1,5-dimethyl-1H-pyrazol-4-yl)sulfonyl)-1-(4-fluorophenyl)-4,4a,5,6,7,8-hexahydro-1H-pyrazolo[3,4-g]isoquinolin-4a-yl)(4-methylpyridin-2-yl)methanone] the same measures were below 0.5 nM and below 20 nM.
For `Cc1ccnc(C(=O)[C@]23Cc4cnn(-c5ccc(F)cc5)c4C=C2CCN(S(=O)(=O)c2ccnn2C)C3)c1` [Example 11AJ, (R)-(1-(4-fluorophenyl)-6-((1-methyl-1H-pyrazol-5-yl)sulfonyl)-4,4a,5,6,7,8-hexahydro-1H-pyrazolo[3,4-g]isoquinolin-4a-yl)(4-methylpyridin-2-yl)methanone] the same measures were below 0.5 nM and below 20 nM.
For `Cc1ccnc(C(=O)[C@]23Cc4cnn(-c5ccc(F)cc5)c4C=C2CCN(S(=O)(=O)c2ccn(C)n2)C3)c1` [Example 11AK, (R)-(1-(4-fluorophenyl)-6-((1-methyl-1H-pyrazol-3-yl)sulfonyl)-4,4a,5,6,7,8-hexahydro-1H-pyrazolo[3,4-g]isoquinolin-4a-yl)(4-methylpyridin-2-yl)methanone] the same measures were below 0.5 nM and below 20 nM.
`Cc1ccnc(C(=O)[C@]23Cc4cnn(-c5ccc(F)cc5)c4C=C2CCN(S(=O)(=O)c2ccc(F)c(C)c2)C3)c1` [Example 11AL, (R)-(6-((4-fluoro-3-methylphenyl)sulfonyl)-1-(4-fluorophenyl)-4,4a,5,6,7,8-hexahydro-1H-pyrazolo[3,4-g]isoquinolin-4a-yl)(4-methylpyridin-2-yl)methanone]: the Ki on human recombinant GR (setting [2]) was below 0.5 nM; in assay [1] (setting [3]), below 20 nM.
For `Cc1ccnc(C(=O)[C@]23Cc4cnn(-c5ccc(F)cc5)c4C=C2CCN(S(=O)(=O)c2cnc4c(c2)OCCN4C)C3)c1` [Example 11AM, (R)-(1-(4-fluorophenyl)-6-((4-methyl-3,4-dihydro-2H-pyrido[3,2-b][1,4]oxazin-7-yl)sulfonyl)-4,4a,5,6,7,8-hexahydro-1H-pyrazolo[3,4-g]isoquinolin-4a-yl)(4-methylpyridin-2-yl)methanone] the same measures were below 0.5 nM and below 20 nM.
The like results for `Cc1ccnc(C(=O)[C@]23Cc4cnn(-c5ccc(F)cc5)c4C=C2CCN(S(=O)(=O)c2ccc4c(c2)CCO4)C3)c1` [Example 11AN, (R)-(6-((2,3-dihydrobenzofuran-5-yl)sulfonyl)-1-(4-fluorophenyl)-4,4a,5,6,7,8-hexahydro-1H-pyrazolo[3,4-g]isoquinolin-4a-yl)(4-methylpyridin-2-yl)methanone] were, in that order, below 0.5 nM and below 20 nM.
For `Cc1ccnc(C(=O)[C@]23Cc4cnn(-c5ccc(F)cc5)c4C=C2CCN(S(=O)(=O)c2ccc4c(c2)CC(=O)N4C)C3)c1` [Example 11AO, (R)-5-((1-(4-fluorophenyl)-4a-(4-methylpicolinoyl)-4a,5,7,8-tetrahydro-1H-pyrazolo[3,4-g]isoquinolin-6 (4H)-yl)sulfonyl)-1-methylindolin-2-one] the same measures were below 0.5 nM and below 20 nM.
Take `Cc1ccnc(C(=O)[C@]23Cc4cnn(-c5ccc(F)cc5)c4C=C2CCN(S(=O)(=O)c2cccc(S(C)(=O)=O)c2)C3)c1` [Example 11AP, (R)-(1-(4-fluorophenyl)-6-((3-(methylsulfonyl)phenyl)sulfonyl)-4,4a,5,6,7,8-hexahydro-1H-pyrazolo[3,4-g]isoquinolin-4a-yl)(4-methylpyridin-2-yl)methanone]: the Ki on human recombinant GR (setting [2]) was below 0.5 nM; in assay [1] (setting [3]) it was below 20 nM.
For `Cc1ccnc(C(=O)[C@]23Cc4cnn(-c5ccc(F)cc5)c4C=C2CCN(S(=O)(=O)c2cn(C)nc2C)C3)c1` [Example 11AQ, (R)-(6-((1,3-dimethyl-1H-pyrazol-4-yl)sulfonyl)-1-(4-fluorophenyl)-4,4a,5,6,7,8-hexahydro-1H-pyrazolo[3,4-g]isoquinolin-4a-yl)(4-methylpyridin-2-yl)methanone] the same measures were below 0.5 nM and 20 to 100 nM.
Take `Cc1ccnc(C(=O)[C@]23Cc4cnn(-c5ccc(F)cc5)c4C=C2CCN(S(=O)(=O)c2ccc4c(c2)OCCO4)C3)c1` [Example 11AR, (R)-(6-((2,3-dihydrobenzo[b][1,4]dioxin-6-yl)sulfonyl)-1-(4-fluorophenyl)-4,4a,5,6,7,8-hexahydro-1H-pyrazolo[3,4-g]isoquinolin-4a-yl)(4-methylpyridin-2-yl)methanone]: the Ki on human recombinant GR (setting [2]) is below 0.5 nM; in assay [1] (setting [3]), below 20 nM.
For `Cc1ccnc(C(=O)[C@]23Cc4cnn(-c5ccc(F)cc5)c4C=C2CCN(S(=O)(=O)c2ccc(C(F)(F)F)c(F)c2)C3)c1` [Example 11AS, (R)-(6-((3-fluoro-4-(trifluoromethyl)phenyl)sulfonyl)-1-(4-fluorophenyl)-4,4a,5,6,7,8-hexahydro-1H-pyrazolo[3,4-g]isoquinolin-4a-yl)(4-methylpyridin-2-yl)methanone], the figures for the Ki (at human recombinant GR (setting [2]); in assay [1] (setting [3])) were below 0.5 nM and below 20 nM, respectively.
For the compound `O=C(c1ccccn1)[C@]12Cc3cnn(-c4ccc(F)cc4)c3C=C1CCN(S(=O)(=O)c1ccc(C(F)(F)F)c(F)c1)C2` [Example 11AT, (R)-(6-((3-fluoro-4-(trifluoromethyl)phenyl)sulfonyl)-1-(4-fluorophenyl)-4,4a,5,6,7,8-hexahydro-1H-pyrazolo[3,4-g]isoquinolin-4a-yl)(pyridin-2-yl)methanone], the Ki at human recombinant GR is below 0.5 nM; in assay [1], below 20 nM.
For `CCc1ccnc(C(=O)[C@]23Cc4cnn(-c5ccc(F)cc5)c4C=C2CCN(S(=O)(=O)c2cccc(C#N)c2)C3)c1` [Example 11AU, (R)-3-((4a-(4-ethylpicolinoyl)-1-(4-fluorophenyl)-4a,5,7,8-tetrahydro-1H-pyrazolo [3,4-g]isoquinolin-6 (4H)-yl)sulfonyl)benzonitrile], the Ki on human recombinant GR (setting [2]) is below 0.5 nM; in assay [1] (setting [3]) it was below 20 nM.
